Values of other authors as cited in patent US8802142B2, “Pharmaceutical compositions comprising levetiracetam and process for their preparation” (UCB Pharma, S.A., priority 2005, dated 2014).

Conditions: A. J. Gower et al., Eur. J. Pharmacol., 222, 1992, 193-203

Compound | activity in the treatment of epilepsy
CC[C@@H](C(N)=O)N1CCCC1=O [Levetiracetam, (S)-(−)-α-ethyl-2-oxo-1-pyrrolidine acetamide] | effective
(R)-(−)-α-ethyl-2-oxo-1-pyrrolidine acetamide | completely lacks activity
